Data reported in patent US20240360193A1, “POLYPEPTIDE DERIVATIVE WITH DUAL GLP-1R AND GIPR TARGETING AGONISTIC EFFECT, AND PREPARATION METHOD AND USE THEREOF” (NANJING ZHIHE MEDICINE TECHNOLOGY CO., LTD., priority 2021, published 2024).
Where two headings read alike, the source gives them in different places. Square brackets hold non-standard residues; d marks the D form. Peptide text beside a SMILES is read from it. * marks the point of attachment. X1 = O=C(O)CCCCCCCCCCCCCCCCCCC(=O)NC(CCC(=O)NCCOCCOCCNC(=O)COCCOCC(=O)*)C(=O)O; Aib = CC(C)(N)C(=O)O

Legend:
in vivo = assay: in vivo; set-up: species or system SD rats; settings: rat, sc, 1.35 mg/kg; for MRT: male, SD
Procedure: The polypeptide derivative (1) and Tirzepatide were subcutaneously administered to male rats respectively in a single dose, blood samples of the male rats were then collected at different time points, and a concentration of the compound in plasma was determined by LC-MS/MS and related pharmacokinetic parameters were calculated, to investigate the pharmacokinetic characteristics of the compound in the rats.
16 male SD rats were randomly divided into two groups of eight rats each based on body weights. The rats were fasted for 12 h to 14 h, but water was allowed, one day before the administration. The rats were given food 4 h after the administration.
Sample collection: Before and after the administration, 0.1 mL of blood was sampled from the orbit of each rat under isoflurane anaesthesia, and then added in an EDTAK2 centrifuge tube in an ice bath to be centrifuged at 4° C. at 5000 rpm for 10 min. Then, plasma was collected.
Time points for blood collection of SC groups are 0, 5 min, 15 min, 30 min, 1 h, 2 h, 4 h, 6 h, 8 h, 24 h, 28 h, 32 h, and 48 h. All plasma samples were stored at −80° C. before analysis and testing.
The software Analyst 1.5.1 (Applied Biosystem) was used for data collection and system control. Automatic chromatographic peak integration was used for the sample. The sample concentration was regressed with a ratio of the sample peak area to the internal standard peak area as an index. Linear regression was used with a weighting factor of 1/X^2. Pharmacokinetic parameters were analyzed and processed with a non-compartmental model by using WinNonlin Professional v6.3 (Pharsight, USA). Cmax is a measured maximum plasma concentration. An area AUC(0→t) under a plasma concentration-time curve is obtained through ladder-shape calculation. Tmax is a time of a peak plasma concentration after the administration. The experimental data was expressed as “mean±standard deviation” (Mean±SD, n≥8) or “mean” (Mean, n=8).
Based on the plasma concentration data, the pharmacokinetic parameters after the administration calculated with the on-compartmental model by using WinNonlin V6.3 are shown in the following table.

[1] = human, in vivo; cited from earlier work
[2] = set-up: species or system humans; settings: human, in vivo
From the text: According to disclosed data, an average clinical half-life of the control Tirzepatide in humans is 5.0 days.

| SMILES | MRT (in vivo) | AUC(0-inf) (in vivo) | AUC(0-t) (in vivo) | AUMC0-inf (in vivo) | AUMC0-t (in vivo) | Cmax (in vivo) | Kel (in vivo) | Tmax (in vivo) | half-life (in vivo) | average clinical half-life in humans [1] | half-life [2] |
| --- | --- | --- | --- | --- | --- | --- | --- | --- | --- | --- | --- |
| CC[C@H](C)[C@H](NC(=O)[C@H](CC(C)C)NC(=O)[C@H](Cc1c[nH]c2ccccc12)NC(=O)[C@H](CCC(N)=O)NC(=O)[C@@H](NC(=O)[C@H](Cc1ccccc1)NC(=O)[C@H](C)NC(=O)[C@H](CCCCNC(=O)COCCOCCNC(=O)COCCOCCNC(=O)CC[C@H](NC(=O)CCCCCCCCCCCCCCCCCCC(=O)O)C(=O)O)NC(=O)[C@H](CCC(N)=O)NC(=O)[C@H](C)NC(=O)[C@@H](NC(=O)[C@H](CCCCN)NC(=O)[C@H](CC(=O)O)NC(=O)[C@H](CC(C)C)NC(=O)C(C)(C)NC(=O)[C@@H](NC(=O)[C@H](CO)NC(=O)[C@H](Cc1ccc(O)cc1)NC(=O)[C@H](CC(=O)O)NC(=O)[C@H](CO)NC(=O)[C@@H](NC(=O)[C@H](Cc1ccccc1)NC(=O)[C@@H](NC(=O)CNC(=O)[C@H](CCC(=O)O)NC(=O)C(C)(C)NC(=O)[C@@H](N)Cc1ccc(O)cc1)[C@@H](C)O)[C@@H](C)O)[C@@H](C)CC)[C@@H](C)CC)C(C)C)C(=O)N[C@@H](C)C(=O)NCC(=O)NCC(=O)N1CCC[C@H]1C(=O)N[C@@H](CO)C(=O)N[C@@H](CO)C(=O)NCC(=O)N[C@@H](C)C(=O)N1CCC[C@H]1C(=O)N1CCC[C@H]1C(=O)N1CCC[C@H]1C(=O)N[C@@H](CO)C(N)=O [Tirzepatide] | 25.6 h | 52100 ng·h/mL | 46700 ng·h/mL | 1352210 h · h · ng · mL^−1 | 1003190 h · h · ng · mL^−1 | 1540 ng/mL | 0.0680 h⁻¹ | 20 h | 10.6 h | 120 h |  |
| CC[C@H](C)[C@H](NC(=O)[C@H](CCCCN)NC(=O)[C@H](CC(=O)O)NC(=O)[C@H](CC(C)C)NC(=O)C(C)(C)NC(=O)[C@@H](NC(=O)[C@H](CO)NC(=O)[C@H](Cc1ccc(O)cc1)NC(=O)[C@H](CC(=O)O)NC(=O)[C@H](CO)NC(=O)[C@@H](NC(=O)[C@H](Cc1ccccc1)NC(=O)[C@@H](NC(=O)CNC(=O)[C@H](CC(=O)O)NC(=O)C(C)(C)NC(=O)[C@@H](N)Cc1ccc(O)cc1)[C@@H](C)O)[C@@H](C)O)[C@@H](C)CC)C(=O)N[C@@H](C)C(=O)N[C@@H](CCC(N)=O)C(=O)N[C@@H](CCCCNC(=O)COCCOCC(=O)NCCOCCOCCNC(=O)CCC(NC(=O)CCCCCCCCCCCCCCCCCCC(=O)O)C(=O)O)C(=O)N[C@@H](C)C(=O)N[C@@H](Cc1ccccc1)C(=O)N[C@H](C(=O)N[C@@H](CCC(N)=O)C(=O)N[C@@H](Cc1c[nH]c2ccccc12)C(=O)N[C@@H](CC(C)C)C(=O)N[C@@H](CC(C)C)C(=O)N[C@@H](C)C(=O)NCC(=O)NCC(=O)N1CCC[C@H]1C(=O)N[C@@H](CO)C(=O)N[C@@H](CO)C(=O)NCC(=O)N[C@@H](C)C(=O)N1CCC[C@H]1C(=O)N1CCC[C@H]1C(=O)N1CCC[C@H]1C(=O)N[C@@H](CO)C(N)=O)C(C)C (some centres unmarked) [Polypeptide derivative (1)] (H-Y[Aib]DGTFTSDYSI[Aib]LDKIAQK(X1)AFVQWLLAGGPSSGAPPPS-NH2) | 33.6 h | 89700 ng·h/mL | 70400 ng·h/mL | 3022264 h · h · ng · mL^−1 | 1621331 h · h · ng · mL^−1 | 2070 ng/mL | 0.0421 h⁻¹ | 25.3 h | 16.7 h |  | 189 h |
